Results on one compound are retold here after US20020148008A1, “Gene which regulates the dormancy of wheat seed” (priority 2000, published 2002).

What all share (assay): Abscisic acid-sensitivity of seed embryo (seeds cut in halves, sprouting and sprout stretching)
Common to all, as to assay type: in vivo

For assay [1], the system named is Sanin 1 wheat seeds (weak dormancy). As to the method: (§1) Next, seeds obtained from 3 varieties Minaminokomugi, Sanin 1 and Tozan 18) and seeds in which dormancy has been disrupted (Minaminokomugi, Sanin 1) were soaked individually in 5% (W/V) Benlate T(DuPont, USA) for 10 minutes, then sterilized by washing with distilled water. The grains of these wheat seeds were cut in halves to be laid in pet dish. A section where 8 mL of abscisic acid (ABA) solution was added and a section where 8 mL of distilled water was added were produced for each seed, followed by culturing at 22° C. for 6 days to determine the sprouting rate and the degree of sprout stretching.

The subject of assay [2] is Tozan 18 wheat seeds (weak dormancy). How it is done: as §1
Assay [3] deals with Sanin 1 wheat seeds (the dormancy has been disrupted). As to the method:
as §1

For assay [4], the system named is Minaminokomugi wheat seeds (the dormancy has been disrupted). As to the method:
as §1

Assay [5] relates to Minaminokomugi wheat seeds (strong dormancy). As to the method: as §1

Regarding `CC1=CC(=O)CC(C)(C)[C@@]1(O)/C=C/C(C)=C\C(=O)O` [ABA, abscisic acid], the “Sprouting Rate (%)” value in assay [1] (Sanin 1, seeds cut in halves, + 10 μM ABA, 22° C., 6 days) is 100%; in assay [2] (Tozan 18, seeds cut in halves, + 10 μM ABA, 22° C., 6 days) it was 100%; in assay [3] (Sanin 1 (dormancy disrupted), seeds cut in halves, + 10 μM ABA, 22° C., 6 days), 100%; in assay [4] (Minaminokomugi (dormancy disrupted), seeds cut in halves, + 10 μM ABA, 22° C., 6 days), 70%; in assay [5] (Minaminokomugi, seeds cut in halves, + 10 μM ABA, 22° C., 6 days), 0%. Besides, the abscisic acid-sensitivity result in assay [1] (seeds of Sanin 1 with weak dormancy) is “weak abscisic acid-sensitivity or insensitivity”; in assay [2] (seeds of Tozan 18 with weak dormancy), “weak abscisic acid-sensitivity or insensitivity”; in assay [3] (seeds of Sanin 1 in which dormancy has been disrupted), “weak abscisic acid-sensitivity or insensitivity”; in assay [4] (seeds of Minaminokomugi in which dormancy has been disrupted), “weak abscisic acid-sensitivity or insensitivity”; in assay [5] (seed of Minaminokomugi with strong dormancy) it was “strong abscisic acid-sensitivity”.
